Reference: US10508120B2, “TYK2 inhibitors and uses thereof” (Nimbus Lakshmi, Inc., priority 2017, dated 2019)
Where two headings read alike, the source gives them in different places.

Assays:
[1] = molecular target: human TYK2 (JH2domain-pseudokinase) (Homo sapiens (Human), UniProt P29597); test: TYK2 JH2 Domain Binding Assay (KINOMEscan)
Method in brief: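 The construct was human TYK2 G556–D888 fused to the NFkB DNA-binding domain and expressed in HEK293 cells; unpurified extract was incubated with compound and liganded beads for 1 hour at room temperature.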

Tyk2 kinase domain (DH1) = Tyk2 kinase domain (DH1) (Homo sapiens (Human), UniProt P29597); test: Tyk2 Radioactive Kinase Assay; format: biochemical; conditions: for inhibition at 10 µM: read-out: Tyk2 JH1% Inhibition @ 10 μM
Method: (§1) The Tyk2 and JAK2 radioactive kinase assay measures the percent inhibition at the Tyk2 kinase domain (DH1) and the percent inhibition at the JAK2 kinase domain (JH1). Results of the assay are expressed as percent inhibition at 10 μM.

JAK2 kinase domain (JH1) = JAK2 kinase domain (JH1) (Homo sapiens (Human), UniProt O60674); test: JAK2 Radioactive Kinase Assay; format: biochemical; conditions: for inhibition at 10 µM: read-out: JAK2 JH1% Inhibition @ 10 μM
Method: as §1

Sequence of Tyk2 kinase domain (DH1) (P29597 897-1176): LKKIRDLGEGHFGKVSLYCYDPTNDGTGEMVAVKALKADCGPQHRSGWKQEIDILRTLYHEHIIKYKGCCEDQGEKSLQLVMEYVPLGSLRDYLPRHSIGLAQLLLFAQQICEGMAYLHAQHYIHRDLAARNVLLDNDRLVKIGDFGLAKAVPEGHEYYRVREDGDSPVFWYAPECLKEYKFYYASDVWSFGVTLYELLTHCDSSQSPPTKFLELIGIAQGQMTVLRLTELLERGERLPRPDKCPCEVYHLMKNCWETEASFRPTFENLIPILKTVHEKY
Sequence of JAK2 kinase domain (JH1) (O60674 849-1124): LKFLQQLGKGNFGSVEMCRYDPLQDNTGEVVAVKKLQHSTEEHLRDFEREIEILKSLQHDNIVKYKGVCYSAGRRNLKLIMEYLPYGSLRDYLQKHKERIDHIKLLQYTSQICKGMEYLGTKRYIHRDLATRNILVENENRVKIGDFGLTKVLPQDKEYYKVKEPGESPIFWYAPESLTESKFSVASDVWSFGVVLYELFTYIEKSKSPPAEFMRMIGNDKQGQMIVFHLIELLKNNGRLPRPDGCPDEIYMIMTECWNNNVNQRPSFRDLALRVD
Sequence of human TYK2 (JH2domain-pseudokinase) (P29597 556-888): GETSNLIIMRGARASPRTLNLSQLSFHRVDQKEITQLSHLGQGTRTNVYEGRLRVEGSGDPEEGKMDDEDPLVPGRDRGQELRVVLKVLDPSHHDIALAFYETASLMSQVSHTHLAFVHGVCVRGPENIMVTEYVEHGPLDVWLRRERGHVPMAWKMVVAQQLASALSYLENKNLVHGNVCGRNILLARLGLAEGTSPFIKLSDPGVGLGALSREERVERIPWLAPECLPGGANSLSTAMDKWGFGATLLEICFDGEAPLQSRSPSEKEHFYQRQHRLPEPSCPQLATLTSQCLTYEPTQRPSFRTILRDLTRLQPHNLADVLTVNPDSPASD

| Compound | Tyk2 JH1% Inhibition @ 10 μM (Tyk2 kinase domain (DH1); compound at 10 μM, ATP 10 μM) | JAK2 JH1% Inhibition @ 10 μM (JAK2 kinase domain (JH1); compound at 10 μM, ATP 10 μM) | Tyk2 JH1% Inhibition @ 10 μM (Tyk2 kinase domain (DH1); 10 μM compound, 10 μM ATP) | JAK2 JH1% Inhibition @ 10 μM (JAK2 kinase domain (JH1); 10 μM compound, 10 μM ATP) | other results |
| --- | --- | --- | --- | --- | --- |
| CNc1cc(Nc2cccn(-c3cncc(F)c3)c2=O)nc2c(C(=O)NC3CC3)cnn12 [I-967] |  |  |  |  | Kd [1]: < 0.2 nM; inhibition at 10 µM (Tyk2 kinase domain (DH1); 10 μM compound, 10 μM ATP): < 50%; inhibition at 10 µM (JAK2 kinase domain (JH1); 10 μM compound, 10 μM ATP): < 50% |
| CNc1cc(Nc2cccn(-c3ccc(C4CCN(C)CC4)cc3)c2=O)nc2c(C(=O)N[C@H]3C[C@H]3F)cnn12 [I-389] |  |  |  |  | Kd [1]: < 0.2 nM; inhibition at 10 µM (Tyk2 kinase domain (DH1); compound at 10 μM, ATP 10 μM): < 50%; inhibition at 10 µM (JAK2 kinase domain (JH1); compound at 10 μM, ATP 10 μM): < 50% |
| CNc1cc(Nc2cccn(-c3cccnc3C)c2=O)nc2c(C(=O)N[C@@H]3C[C@@H]3F)cnn12 [I-813] |  |  |  |  | Kd [1]: 0.2 to 1 nM; inhibition at 10 µM (Tyk2 kinase domain (DH1); 10 μM compound, 10 μM ATP): < 50%; inhibition at 10 µM (JAK2 kinase domain (JH1); 10 μM compound, 10 μM ATP): < 50% |
| CNc1cc(Nc2cccn([C@@H]3CCN(C)C[C@H]3F)c2=O)nc2c(C(=O)NC3CC3)cnn12 [I-686] |  |  |  |  | Kd [1]: 0.2 to 1 nM; inhibition at 10 µM (Tyk2 kinase domain (DH1); compound at 10 μM, ATP 10 μM): < 50%; inhibition at 10 µM (JAK2 kinase domain (JH1); compound at 10 μM, ATP 10 μM): < 50% |
| CNc1cc(Nc2cccc([C@H]3CCCOC3)n2)nc2c(C(=O)N[C@H]3CC[C@@H]3O)cnn12 [I-602] |  |  |  |  | Kd [1]: < 0.2 nM; inhibition at 10 µM (Tyk2 kinase domain (DH1); compound at 10 μM, ATP 10 μM): < 50%; inhibition at 10 µM (JAK2 kinase domain (JH1); compound at 10 μM, ATP 10 μM): < 50% |
| CNc1cc(-c2cn(CCN3CCOCC3)c3ncccc23)nc2c(C(N)=O)cnn12 [I-796, 7-(methylamino)-5-(1-(2-morpholinoethyl)-1H-pyrrolo[2,3-b]pyridin-3-yl)pyrazolo[1,5-a]pyrimidine-3-carboxamide] |  |  |  |  | Kd [1]: < 0.2 nM; inhibition at 10 µM (Tyk2 kinase domain (DH1); compound at 10 μM, ATP 10 μM): < 50%; inhibition at 10 µM (JAK2 kinase domain (JH1); compound at 10 μM, ATP 10 μM): < 50% |
| CNc1cc(Nc2cccnc2OC2CCOCC2)nc2c(C(=O)N[C@H]3C[C@H]3F)cnn12 [I-174] |  |  |  |  | Kd [1]: < 0.2 nM; inhibition at 10 µM (Tyk2 kinase domain (DH1); compound at 10 μM, ATP 10 μM): < 50%; inhibition at 10 µM (JAK2 kinase domain (JH1); compound at 10 μM, ATP 10 μM): < 50% |
| CNc1cc(Nc2cccn([C@@H]3CCCOC3)c2=O)nc2c(C(=O)N[C@@H]3COC[C@@H]3O)cnn12 [I-787] |  |  |  |  | Kd [1]: > 10 nM; inhibition at 10 µM (Tyk2 kinase domain (DH1); compound at 10 μM, ATP 10 μM): < 50%; inhibition at 10 µM (JAK2 kinase domain (JH1); compound at 10 μM, ATP 10 μM): < 50% |
| CNc1cc(Nc2cccc(N3CCC4(CCCO4)CC3)n2)nc2c(C(=O)N[C@@H]3CC[C@@H]3O)cnn12 [I-720] | A (percent inhibition at 10 μM lower than 50) | A (percent inhibition at 10 μM lower than 50) |  |  | Kd [1]: 1 to 10 nM |
| CNc1cc(-c2cn(C(C)C)c3ncccc23)nc2c(C(=O)N[C@@H]3C[C@H]3O)cnn12 (stereo in doubt) [I-732, N-((1R,2R)-2-hydroxycyclopropyl)-5-(1-isopropyl-1H-pyrrolo[2,3-b]pyridin-3-yl)-7-(methylamino)pyrazolo[1,5-a]pyrimidine-3-carboxamide] | A (percent inhibition at 10 μM lower than 50) | A (percent inhibition at 10 μM lower than 50) |  |  |  |
| CNc1cc(Nc2cccn(-c3ccccn3)c2=O)nc2c(C(=O)N[C@H]3CC[C@@H]3OC)cnn12 [I-909, N-((1S,2S)-2-methoxycyclobutyl)-7-(methylamino)-5-((2-oxo-2H-[1,2′-bipyridin]-3-yl)amino)pyrazolo[1,5-a]pyrimidine-3-carboxamide] |  |  |  |  | inhibition at 10 µM (Tyk2 kinase domain (DH1)): < 50%; inhibition at 10 µM (JAK2 kinase domain (JH1)): < 50% |
| CNc1cc(Nc2cccn([C@H]3C[C@@H]3F)c2=O)nc2c(C(=O)NCC3(CO)CC3)cnn12 [I-1121, 5-((1-((1S,2S)-2-fluorocyclopropyl)-2-oxo-1,2-dihydropyridin-3-yl)amino)-N-((1-(hydroxymethyl)cyclopropyl)methyl)-7-(methylamino)pyrazolo[1,5-a]pyrimidine-3-carboxamide] |  |  | A (percent inhibition at 10 μM lower than 50) | A (percent inhibition at 10 μM lower than 50) |  |
| CNc1cc(-c2cn(CCN3CCN(C)CC3)c3ncccc23)nc2c(C(=O)N[C@H]3CC[C@H]3O)cnn12 [I-906, N-((1S,2R)-2-hydroxycyclobutyl)-7-(methylamino)-5-(1-(2-(4-methylpiperazin-1-yl)ethyl)-1H-pyrrolo[2,3-b]pyridin-3-yl)pyrazolo[1,5-a]pyrimidine-3-carboxamide] |  |  | A (percent inhibition at 10 μM lower than 50) | A (percent inhibition at 10 μM lower than 50) |  |
| CNc1cc(-c2cn(CCN3CCN(C)CC3)c3ncccc23)nc2c(C(=O)N[C@H]3CC[C@@H]3O)cnn12 [I-920, N-((1S,2S)-2-hydroxycyclobutyl)-7-(methylamino)-5-(1-(2-(4-methylpiperazin-1-yl)ethyl)-1H-pyrrolo[2,3-b]pyridin-3-yl)pyrazolo[1,5-a]pyrimidine-3-carboxamide] |  |  | A (percent inhibition at 10 μM lower than 50) | A (percent inhibition at 10 μM lower than 50) |  |
| CNc1cc(Nc2cccn([C@H]3CCN(C)C[C@@H]3F)c2=O)nc2c(C(=O)NC3CC3)cnn12 [I-685] | A (percent inhibition at 10 μM lower than 50) | A (percent inhibition at 10 μM lower than 50) |  |  |  |
| CNc1cc(Nc2cccn([C@@H]3CCC[C@@H](O)C3)c2=O)nc2c(C(=O)N[C@@H]3C[C@@H]3F)cnn12 [I-983] |  |  | A (percent inhibition at 10 μM lower than 50) | A (percent inhibition at 10 μM lower than 50) |  |

| Compound | Tyk2 JH1% Inhibition @ 10 μM (Tyk2 kinase domain (DH1); compound at 10 μM, ATP 10 μM) | JAK2 JH1% Inhibition @ 10 μM (JAK2 kinase domain (JH1); compound at 10 μM, ATP 10 μM) | Tyk2 JH1% Inhibition @ 10 μM (Tyk2 kinase domain (DH1); 10 μM compound, 10 μM ATP) | JAK2 JH1% Inhibition @ 10 μM (JAK2 kinase domain (JH1); 10 μM compound, 10 μM ATP) | other results |
| --- | --- | --- | --- | --- | --- |
| CNc1cc(Nc2cccn([C@H]3CC[C@@H]3OC)c2=O)nc2c(C(=O)NC3CC3)cnn12 [I-936] |  |  | A (percent inhibition at 10 μM lower than 50) | A (percent inhibition at 10 μM lower than 50) |  |
| CNc1cc(Nc2cccn([C@H]3CCCOC3)c2=O)nc2c(C(=O)N[C@H]3CC[C@@H]3O)cnn12 [I-724] | A (percent inhibition at 10 μM lower than 50) | A (percent inhibition at 10 μM lower than 50) |  |  |  |
| CNc1cc(Nc2cccn(-c3ccccc3F)c2=O)nc2c(C(=O)N[C@@H]3CC[C@H]3O)cnn12 [I-940] |  |  | A (percent inhibition at 10 μM lower than 50) | A (percent inhibition at 10 μM lower than 50) |  |
| CNc1cc(Nc2cccn([C@H]3CC[C@@H]3OC)c2=O)nc2c(C(=O)N[C@@H]3C[C@@H]3F)cnn12 [I-1021] |  |  |  |  | inhibition at 10 µM (Tyk2 kinase domain (DH1); 10 μM compound, 10 μM ATP): < 50%; inhibition at 10 µM (JAK2 kinase domain (JH1); 10 μM compound, 10 μM ATP): < 50% |
| CNc1cc(Nc2cccnc2OC2CC2)nc2c(C(=O)N[C@H]3CC[C@H](O)C3)cnn12 [I-489, 5-((2-cyclopropoxypyridin-3-yl)amino)-N-((1S,3S)-3-hydroxycyclopentyl)-7-(methylamino)pyrazolo[1,5-a]pyrimidine-3-carboxamide] | A (percent inhibition at 10 μM lower than 50) | A (percent inhibition at 10 μM lower than 50) |  |  |  |
| CNc1cc(-c2cn(CCN3CCOCC3)c3ncccc23)nc2c(C(=O)N[C@@H]3CC[C@H]3O)cnn12 [I-835] |  |  |  |  | inhibition at 10 µM (Tyk2 kinase domain (DH1); 10 μM compound, 10 μM ATP): < 50%; inhibition at 10 µM (JAK2 kinase domain (JH1); 10 μM compound, 10 μM ATP): < 50% |
| CNc1cc(Nc2cccn([C@@H]3CCCOC3)c2=O)nc2c(C(=O)N[C@H]3CC[C@@H]3O)cnn12 [I-726] | A (percent inhibition at 10 μM lower than 50) | A (percent inhibition at 10 μM lower than 50) |  |  |  |
| CNc1cc(Nc2cccc([C@@H]3CCCCO3)n2)nc2c(C(=O)N[C@@H]3CC[C@@H]3O)cnn12 [I-646] | A (percent inhibition at 10 μM lower than 50) | A (percent inhibition at 10 μM lower than 50) |  |  |  |
| CNc1cc(Nc2cccn(C3CCOCC3)c2=O)nc2c(C(=O)N[C@H]3CC[C@@H]3O)cnn12 [I-596] | A (percent inhibition at 10 μM lower than 50) | A (percent inhibition at 10 μM lower than 50) |  |  |  |
| CNc1cc(Nc2cccnc2OC)nc2c(C(=O)N[C@@H]3CCC[C@H]3O)cnn12 [I-448, (R)—N-((1R,2R)-2-hydroxycyclopentyl)-5-((2-methoxypyridin-3-yl)amino)-7-(methylamino)pyrazolo[1,5-a]pyrimidine-3-carboxamide] | A (percent inhibition at 10 μM lower than 50) | A (percent inhibition at 10 μM lower than 50) |  |  |  |
| CNc1cc(Nc2cccn([C@@H]3CCC[C@H](OC)C3)c2=O)nc2c(C(=O)N[C@@H]3CC[C@H]3O)cnn12 [I-994] |  |  | A (percent inhibition at 10 μM lower than 50) | A (percent inhibition at 10 μM lower than 50) |  |
| CNc1cc(Nc2cccn([C@H]3CCC[C@H](OC)C3)c2=O)nc2c(C(=O)NCC3(CO)CC3)cnn12 [I-1086] |  |  | A (percent inhibition at 10 μM lower than 50) | A (percent inhibition at 10 μM lower than 50) |  |
| CNc1cc(Nc2cccn(-c3nc(C)co3)c2=O)nc2c(C(=O)N[C@H]3CC[C@@H]3O)cnn12 [I-769] | A (percent inhibition at 10 μM lower than 50) | A (percent inhibition at 10 μM lower than 50) |  |  |  |
| CNc1cc(Nc2cccn(C(C)C)c2=O)nc2c(C(=O)N[C@H]3CCC[C@H](O)C3)cnn12 [I-919, 5-N-(3-hydroxycyclohexyl)-5-((1-isopropyl-2-oxo-1,2-dihydropyridin-3-yl)amino)-7-(methylamino)pyrazolo[1,5-a]pyrimidine-3-carboxamide] |  |  | A (percent inhibition at 10 μM lower than 50) | A (percent inhibition at 10 μM lower than 50) |  |
| CNc1cc(Nc2cccn(C(C)C)c2=O)nc2c(C(=O)N[C@@H]3CC[C@H]3O)cnn12 [I-981] |  |  | A (percent inhibition at 10 μM lower than 50) | A (percent inhibition at 10 μM lower than 50) |  |
| CNc1cc(Nc2cccn(C3CCN(CCF)CC3)c2=O)nc2c(C(=O)N[C@@H]3CC[C@H]3O)cnn12 [I-898] |  |  | A (percent inhibition at 10 μM lower than 50) | A (percent inhibition at 10 μM lower than 50) |  |
